Data on 1 compound can be found in US6503909B1, “Pyrazine compounds” (SmithKline Beecham Corporation, priority 1998, dated 2003).

The subject of this series is male Han Wistar rats. The series is described as follows: rat maximal electroshock test (MES). It is filed as in vivo. As for the experimental part: For example, male Han Wistar rats (150-200 grms) were dosed i.p. with a suspension of the test compound in 0.25% methylcellulose 2 hr prior to test. A visual observation was carried out just prior to testing for the presence of ataxia. Using auricular electrodes a current of 200 mA, duration 300 millisec, was applied and the presence or absence of hind limb extension noted.
In general terms: In the maximal electroshock model the usual endpoint is tonic extension of the hind limbs.

In general, ED50 refers to the dose at which the effect has come halfway, by size or by number of responders. On to `Nc1nnc(-c2cccc(Cl)c2Cl)c(N)n1` [lamotrigine], for which the ED50 (Rattus norvegicus, ip, dosed i.p. as suspension in 0.25% methylcellulose 2 hr prior to test, 200 mA, 300 millisec, auricular electrodes, read-out: ED50 (MES, hind limb extension)) is 6.1 mg/kg. Further, under “i.p., 2 hr prior to test, ataxia by visual observation”, the “therapeutic index (ratio of the ataxia ED50 and MES ED50)” value is recorded as 3.3.
